Columns and labels:
Type in all cases: functional
SNB-19 [1] = assay: Cytotoxicity against human SNB19 cells after 48 hrs by SRB assay; conditions: SNB-19, 48 h
SF-295 = assay: Cytotoxicity against human SF295 cells assessed as cell growth at 10^-8 M after 48 hrs by SRB assay; conditions: SF-295, 48 h, read-out: Activity
SK-OV-3 [2] = assay: Cytotoxicity against human SKOV3 cells after 48 hrs by SRB assay; conditions: SK-OV-3, 48 h
HL-60(TB) [3] = assay: Cytotoxicity against human HL-60(TB) cells assessed as cell growth at 10^-6 M after 48 hrs by SRB assay; conditions: HL-60, 48 h, read-out: Activity
SR [4] = assay: Cytotoxicity against human SR cells assessed as cell growth at 10^-7 M after 48 hrs by SRB assay; conditions: read-out: Activity
COLO 205 = assay: Cytotoxicity against human COLO205 cells assessed as cell growth at 10^-4 M after 48 hrs by SRB assay; conditions: COLO 205, 48 h, read-out: Activity
NCI-H23 = assay: Cytotoxicity against human NCI-H23 cells assessed as cell growth at 10^-8 M after 48 hrs by SRB assay; conditions: NCI-H23, 48 h, read-out: Activity
T47D [5] = assay: Cytotoxicity against human T47D cells after 48 hrs by SRB assay
MDA-MB-468 = assay: Cytotoxicity against human MDA-MB-468 cells assessed as cell growth at 10^-6 M after 48 hrs by SRB assay; conditions: MDA-MB-468, 48 h, read-out: Activity
A498 = assay: Cytotoxicity against human A498 cells assessed as cell growth at 10^-4 M after 48 hrs by SRB assay; conditions: A498, 48 h, read-out: Activity
T47D [6] = assay: Cytotoxicity against human T47D cells assessed as cell growth at 10^-8 M after 48 hrs by SRB assay; conditions: read-out: Activity
SK-OV-3 [7] = assay: Cytotoxicity against human SKOV3 cells assessed as cell growth at 10^-8 M after 48 hrs by SRB assay; conditions: SK-OV-3, 48 h, read-out: Activity
MDA-MB-231 [8] = assay: Cytotoxicity against human MDA-MB-231 cells assessed as cell growth at 10^-8 M after 48 hrs by SRB assay; conditions: MDA-MB-231, 48 h, read-out: Activity
MDA-MB-231 [9] = assay: Cytotoxicity against human MDA-MB-231 cells after 48 hrs by SRB assay; conditions: MDA-MB-231, 48 h
OVCAR-8 [10] = assay: Cytotoxicity against human OVCAR8 cells assessed as cell growth at 10^-7 M after 48 hrs by SRB assay; conditions: OVCAR-8, 48 h, read-out: Activity
SNB-19 [11] = assay: Cytotoxicity against human SNB19 cells assessed as cell growth at 10^-7 M after 48 hrs by SRB assay; conditions: SNB-19, 48 h, read-out: Activity
ACHN = assay: Cytotoxicity against human ACHN cells after 48 hrs by SRB assay
NCI-H460 = assay: Cytotoxicity against human NCI-H460 cells assessed as cell growth at 10^-8 M after 48 hrs by SRB assay; conditions: NCI-H460, 48 h, read-out: Activity
KM12 = assay: Cytotoxicity against human KM12 cells after 48 hrs by SRB assay; conditions: KM12, 48 h
SK-OV-3 [12] = assay: Cytotoxicity against human SKOV3 cells assessed as cell growth at 10^-6 M after 48 hrs by SRB assay; conditions: SK-OV-3, 48 h, read-out: Activity
NCI-H322M [13] = assay: Cytotoxicity against human NCI-H322M cells assessed as cell growth at 10^-6 M after 48 hrs by SRB assay; conditions: read-out: Activity
HCT-15 = assay: Cytotoxicity against human HCT15 cells assessed as cell growth at 10^-7 M after 48 hrs by SRB assay; conditions: HCT-15, 48 h, read-out: Activity
MDA-MB-231 [14] = assay: Cytotoxicity against human MDA-MB-231 cells assessed as cell growth at 10^-4 M after 48 hrs by SRB assay; conditions: MDA-MB-231, 48 h, read-out: Activity
SK-MEL-2 = assay: Cytotoxicity against human SK-MEL-2 cells assessed as cell growth at 10^-8 M after 48 hrs by SRB assay; conditions: SK-MEL-2, 48 h, read-out: Activity
DU-145 = assay: Cytotoxicity against human DU145 cells assessed as cell growth at 10^-8 M after 48 hrs by SRB assay; conditions: DU-145, 48 h, read-out: Activity
HL-60(TB) [15] = assay: Cytotoxicity against human HL-60(TB) cells assessed as cell growth at 10^-7 M after 48 hrs by SRB assay; conditions: HL-60, 48 h, read-out: Activity
HOP-62 = assay: Cytotoxicity against human HOP62 cells assessed as cell growth at 10^-8 M after 48 hrs by SRB assay; conditions: HOP-62, 48 h, read-out: Activity
[16] = Cytotoxicity against human NCI-ADR-RES cells assessed as cell growth at 10^-6 M after 48 hrs by SRB assay; conditions: read-out: Activity
SR [17] = assay: Cytotoxicity against human SR cells assessed as cell growth at 10^-4 M after 48 hrs by SRB assay; conditions: read-out: Activity
[18] = Cytotoxicity against human OVCAR4 cells assessed as cell growth at 10^-8 M after 48 hrs by SRB assay; conditions: OVCAR-4, 48 h, read-out: Activity
SN12C = assay: Cytotoxicity against human SN12C cells assessed as cell growth at 10^-4 M after 48 hrs by SRB assay; conditions: read-out: Activity
OVCAR-8 [19] = assay: Cytotoxicity against human OVCAR8 cells assessed as cell growth at 10^-8 M after 48 hrs by SRB assay; conditions: OVCAR-8, 48 h, read-out: Activity
[20] = Cytotoxicity against human OVCAR5 cells after 48 hrs by SRB assay; conditions: OVCAR-5, 48 h
K562 = assay: Cytotoxicity against human K562 cells assessed as cell growth at 10^-7 M after 48 hrs by SRB assay; conditions: K562, 48 h, read-out: Activity
BT-549 = assay: Cytotoxicity against human BT549 cells assessed as cell growth at 10^-7 M after 48 hrs by SRB assay; conditions: BT-549, 48 h, read-out: Activity
PC-3 = assay: Cytotoxicity against human PC3 cells after 48 hrs by SRB assay; conditions: PC-3, 48 h
RXF 393 = assay: Cytotoxicity against human RXF393 cells assessed as cell growth at 10^-7 M after 48 hrs by SRB assay; conditions: RXF 393, 48 h, read-out: Activity
NCI-H322M [21] = assay: Cytotoxicity against human NCI-H322M cells assessed as cell growth at 10^-4 M after 48 hrs by SRB assay; conditions: read-out: Activity
UACC-62 = assay: Cytotoxicity against human UACC62 cells assessed as cell growth at 10^-4 M after 48 hrs by SRB assay; conditions: UACC-62, 48 h, read-out: Activity

In the case of `C=CCn1c(C)nc2ccc(Nc3nc(Nc4ccc5nc(C)n(CC=C)c5c4)c4ccccc4n3)cc21`, the GI50 (SNB-19 [1]) is reported as 1690 nM, the TGI (SNB-19 [1]) is reported as 3560 nM and the growth at 0.01 µM (SF-295) is reported as 94%. The GI50 (SK-OV-3 [2]) was 1720 nM, the LC50 (concentration killing 50% of cells) (SK-OV-3 [2]) was 5560 nM and the TGI (SK-OV-3 [2]) was 3090 nM. For the same compound, the growth at 1 µM (HL-60(TB) [3]) was 95%, the growth at 0.1 µM (SR [4]) was 93% and the growth at 100 µM (COLO 205) was -18%. It also gave a growth at 0.01 µM (NCI-H23) of 96%, a GI50 (T47D [5]) of 1540 nM and a TGI (T47D [5]) of 3180 nM. The growth at 1 µM (MDA-MB-468) was 64%, the growth at 100 µM (A498) was -21% and the growth at 0.01 µM (T47D [6]) was 96%. It also gave a growth at 0.01 µM (SK-OV-3 [7]) of 97%, a growth at 0.01 µM (MDA-MB-231 [8]) of 92% and a GI50 (MDA-MB-231 [9]) of 1340 nM. For the same compound, the LC50 (MDA-MB-231 [9]) was 5120 nM, the TGI (MDA-MB-231 [9]) was 2620 nM and the growth at 0.1 µM (OVCAR-8 [10]) was 102%. For the same compound, the growth at 0.1 µM (SNB-19 [11]) was 92%, the GI50 (ACHN) was 1640 nM and the LC50 (ACHN) was 5510 nM. For the same compound, the TGI (ACHN) was 3010 nM, the growth at 0.01 µM (NCI-H460) was 102% and the GI50 (KM12) was 1640 nM. The TGI (KM12) was 3080 nM, the growth at 1 µM (SK-OV-3 [12]) was 96% and the growth at 1 µM (NCI-H322M [13]) was 92%. The growth at 0.1 µM (HCT-15) was 91%, the growth at 100 µM (MDA-MB-231 [14]) was -63% and the growth at 0.01 µM (SK-MEL-2) was 96%. For the same compound, the growth at 0.01 µM (DU-145) was 102%, the growth at 0.1 µM (HL-60(TB) [15]) was 94% and the growth at 0.01 µM (HOP-62) was 99%. For the same compound, the growth at 1 µM [16] was 90%, the growth at 100 µM (SR [17]) was -2% and the growth at 0.01 µM [18] was 99%. The growth at 100 µM (SN12C) was -50%, the growth at 0.01 µM (OVCAR-8 [19]) was 97% and the GI50 [20] was 1700 nM. For the same compound, the LC50 [20] was 5620 nM, the TGI [20] was 3090 nM and the growth at 0.1 µM (K562) was 94%. For the same compound, the growth at 0.1 µM (BT-549) was 95%, the GI50 (PC-3) was 1370 nM and the TGI (PC-3) was 2900 nM. The growth at 0.1 µM (RXF 393) was 96%, the growth at 100 µM (NCI-H322M [21]) was -58% and the growth at 100 µM (UACC-62) was -65%.

From ChEMBL document CHEMBL3112450, “Synthesis and in vitro antitumor evaluation of primary amine substituted quinazoline linked benzimidazole” (Bioorg Med Chem Lett, 2014)
